In general, Ki refers to the dissociation constant of the complex between target and ligand, obtained from inhibition or displacement. Low values mean a stronger hold on the target, high ones a looser hold on the target.

The assay deals with T1, human MR (Homo sapiens, UniProt P08235).
T1 construct: The full length human MR gene is cloned from a human kidney or human brain cDNA library; made in house; host or cells: Sf9 insect cells (baculovirus, pAcHLT transfer vector)
T1 sequence (P08235 1-984): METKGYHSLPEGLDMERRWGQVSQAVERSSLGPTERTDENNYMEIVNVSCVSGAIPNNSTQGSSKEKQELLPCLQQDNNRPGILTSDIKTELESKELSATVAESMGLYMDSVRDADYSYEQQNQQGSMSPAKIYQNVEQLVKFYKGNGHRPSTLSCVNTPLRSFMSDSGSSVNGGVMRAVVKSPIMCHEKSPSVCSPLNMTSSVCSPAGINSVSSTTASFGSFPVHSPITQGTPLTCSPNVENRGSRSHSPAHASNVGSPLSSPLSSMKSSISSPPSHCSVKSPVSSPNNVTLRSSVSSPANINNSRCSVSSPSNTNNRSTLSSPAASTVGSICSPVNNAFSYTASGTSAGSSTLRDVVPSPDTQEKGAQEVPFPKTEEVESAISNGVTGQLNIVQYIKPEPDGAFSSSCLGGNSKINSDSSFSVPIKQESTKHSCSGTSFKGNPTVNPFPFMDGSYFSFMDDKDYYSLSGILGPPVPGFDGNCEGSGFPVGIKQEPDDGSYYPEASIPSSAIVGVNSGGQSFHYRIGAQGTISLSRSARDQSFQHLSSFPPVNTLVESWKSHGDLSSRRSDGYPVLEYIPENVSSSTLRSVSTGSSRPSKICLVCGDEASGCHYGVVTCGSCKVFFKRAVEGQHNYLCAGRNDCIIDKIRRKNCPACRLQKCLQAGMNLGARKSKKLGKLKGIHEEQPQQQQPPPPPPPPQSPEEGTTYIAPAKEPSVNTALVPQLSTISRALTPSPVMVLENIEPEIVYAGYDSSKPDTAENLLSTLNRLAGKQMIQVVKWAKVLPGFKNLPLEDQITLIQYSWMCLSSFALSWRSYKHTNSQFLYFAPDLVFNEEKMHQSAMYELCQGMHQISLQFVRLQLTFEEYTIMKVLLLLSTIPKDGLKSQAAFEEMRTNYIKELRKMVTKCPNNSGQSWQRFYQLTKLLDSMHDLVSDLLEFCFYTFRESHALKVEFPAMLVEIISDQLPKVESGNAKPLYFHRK
Put plainly: Mineralocorticoid Receptor Binding Assay ([3H]-aldosterone displacement). Conditions: full length human MR expressed in Sf9 cells, 0.5 nM [3H]-aldosterone. Summed up:
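Full-length human MR expressed in Sf9 cells; lysate (20-25 μg protein) incubated with 0.5 nM [3H]-aldosterone and test compound in molybdate/Tris/phosphate/glycerol buffer pH 7.5, 16 h at 4 °C. Bound ligand measured by filtration and scintillation counting; IC50 converted to Ki via Cheng-Prusoff.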
For the compound `Cc1cc(C2(c3cc(C)c(O)c(C)c3)C(=O)N(Cc3ccc(OCc4ccccc4)cc3)c3ccccc32)cc(C)c1O` [Example 74, 1-(4-Benzyloxy-benzyl)-3,3-bis-(4-hydroxy-3,5-dimethyl-phenyl)-1,3-dihydro-indol-2-one], the Ki is at most 500 nM.
Compound `Cc1cc(C2(c3cc(C)c(O)c(C)c3)C(=O)N(Cc3ccccc3)c3ccc(Br)cc32)cc(C)c1O` [Example 15, 1-Benzyl-5-bromo-3,3-bis-(4-hydroxy-3,5-dimethyl-phenyl)-1,3-dihydro-indol-2-one] gave an inhibitory constant (Ki) of at most 500 nM.
`Cc1cc(C2(c3cc(C)c(O)c(C)c3)C(=O)N(Cc3ccc(OC(F)(F)F)cc3)c3ccccc32)cc(C)c1O` [Example 67, 3,3-Bis-(4-hydroxy-3,5-dimethyl-phenyl)-1-(4-trifluoromethoxy-benzyl)-1,3-dihydro-indol-2-one] displayed an inhibitory constant (Ki) of at most 500 nM.
The result for `Cc1ccc2c(c1)C(c1cc(C)c(O)c(C)c1)(c1cc(C)c(O)c(C)c1)C(=O)N2Cc1ccccc1` [Example 17, 1-Benzyl-3,3-bis-(4-hydroxy-3,5-dimethyl-phenyl)-5-methyl-1,3-dihydro-indol-2-one] reads at most 500 nM; that for `Cc1ccc(N2C(=O)C(c3cc(C)c(O)c(C)c3)(c3cc(C)c(O)c(C)c3)c3ccccc32)cc1` [Example 125, 3,3-Bis-(4-hydroxy-3,5-dimethyl-phenyl)-1-p-tolyl-1,3-dihydro-indol-2-one], at most 500 nM; that for `O=C1N(Cc2ccccc2)c2ccccc2C1(c1cc(Cl)c(O)c(Cl)c1)c1cc(Cl)c(O)c(Cl)c1` [Example 14, 1-Benzyl-3,3-bis-(3,5-dichloro-4-hydroxy-phenyl)-1,3-dihydro-indol-2-one], at most 1000 nM.
The result for `COc1cccc(CN2C(=O)C(c3cc(C)c(O)c(C)c3)(c3cc(C)c(O)c(C)c3)c3ccccc32)c1` [Example 56, 3,3-Bis-(4-hydroxy-3,5-dimethyl-phenyl)-1-(3-methoxy-benzyl)-1,3-dihydro-indol-2-one] reads at most 500 nM.
Next, `Cc1cc(C2(c3cc(C)c(O)c(C)c3)C(=O)N(Cc3ccccc3F)c3ccccc32)cc(C)c1O` [Example 50, 1-(2-Fluoro-benzyl)-3,3-bis-(4-hydroxy-3,5-dimethyl-phenyl)-1,3-dihydro-indol-2-one]: at most 500 nM.
In turn, `Cc1cc(C2(c3cc(C)c(O)c(C)c3)C(=O)N(Cc3ccccc3N)c3ccccc32)cc(C)c1O` [Example 119, 1-(2-Amino-benzyl)-3,3-bis-(4-hydroxy-3,5-dimethyl-phenyl)-1,3-dihydro-indol-2-one] gave a Ki of at most 500 nM.
The result for `Cc1ccc2c(c1)C(c1cc(C)c(O)c(C)c1)(c1cc(C)c(O)c(C)c1)C(=O)N2Cc1ccccc1C` [Example 21, 3,3-Bis-(4-hydroxy-3,5-dimethyl-phenyl)-5-methyl-1-(2-methyl-benzyl)-1,3-dihydro-indol-2-one] reads at most 500 nM.

The record behind these values is US7250442B2, “Dihydroindol-2-one derivatives as steroid hormone nuclear receptor modulators” (Eli Lilly and Company, priority 2003, dated 2007).
